The values below come from patent US5648244A, “Production, purification, cleavage and use of fusion peptides” (President and Fellows of Harvard College, priority 1993, dated 1997).

The test system of this assay is yeast MATa/sst1Δ strain EY957. The assay can be described thus: Yeast cell arrest (halo) assay. It is filed as cell-based. An excerpt:
The mature wild-type α-Factor peptide is a 13 amino acid pheromone secreted by type […] yeast cells, which upon binding to the α-Factor receptor transmits a signal to an internally located G-protein. Once activated, this G protein triggers a series of intracellular events which lead to cellular differentiation (Elion et al., Cell, 60:649-664 (1990)). In the presence of external α-Factor, yeast cells in the early G1 phase of growth will undergo cell cycle arrest. The bioactivity of each recombinant α-Factor could easily be determined in halo assays as a region of low cell density surrounding a central disk spotted with α-Factor (FIG. 5).
Lawns of yeast MATa/sst1Δ strain EY957 were grown on YPD plates and were tested for α-Factor sensitivity as previously described (Elion et al., Cell, 60:649-664 (1990)). α-Factor peptides were dissolved in DMSO and spotted on sterile 6.5 mm paper disks. Peptide amounts were as follows: Wild-type α-Factor (αFWT)-595 pmoles; αI13-homoserine-lactone (αI13-HSl)-6,850 pmoles; αI13-homoserine (αI13-HS)-1,130 pmoles; αI13-homoserine-amide (αI13-HSA)-2,820 pmoles. The zones of inhibition (z.o.i.) for each peptide is the diameter of the low cell density region. […]
^c The zone of inhibition in mm (z.o.i.) was measured for each series […]

With “WHWLQLKPGQPMY [αFWT, Wild-type α-factor from Sigma, 13 amino acid yeast pheromone, reference compound]”, the “CA50 (cell arrest50)” value (amount of peptide per disk required to cause 50% of cell arrest) is 74 ± 5 pmol. Moreover, the “z.o.i.int (y-intercept of upper asymptote of zone of inhibition curve)” value (relative maximal effect, z.o.i. vs pmoles spotted per 6.5 mm disk) worked out at 29 mm.
